The test system of one assay is HeLa cells. Briefly: Fluorescence microscopy of cytotoxic and pro-apoptotic effect (PI and DAPI staining). The assay is classed as cell-based. An excerpt:
Change in the cellular morphology, initially characterized by cell shrinkage, chromatin condensation, and degradation of the nuclear and plasma membranes, was mostly observed in the programmed cell death. The propidium iodide (PI) staining agent is a fluorescent molecule that penetrates the cancerous cells through ruptured membranes and binds with DNA. Similarly, the subsequent image offers red nuclei contrary to the dark background that indicates the counts of dead cells. On the other hand, viable cells have an intact cell membrane that resists the penetration of the staining agent (PI). Herein, the anticancer potential of the highly functionalized small dihydropyridine scaffold 4d was noticed through the apoptosis induction pathway based on various mechanisms. […] The detachment of cells and appearance of yellow intense fluorescence images on the dark background specify the distribution of PI into the dying cells in a dose-reliant mode.
The apoptotic feature, particularly the condensation of nuclear material, was also observed through the fluorescence microscopic evaluation of compound 4d-treated HeLa cells using 4′,6-diamidino-2-phenylindole (DAPI) as a staining agent. […] The fluorescence intensity enhances many folds upon binding with DNA. The extent of damage in the compound-treated cells was easily measured through an increase in the fluorescence emission intensity. […]

For assay [1], the system named is Cervical Cancer (HeLa) Cells. Briefly: MTT cell viability assay, HeLa. Particulars: Homo sapiens, HeLa. The format is cell-based. An excerpt:
An MTT assay was used to determine the viability of the cells under examination in the desired medium. The mitochondrial dehydrogenase enzyme of the viable cells has a key role in the conversion of the yellow water-soluble substrate 3-(4,5-dimethylthiazol-2-y1)-2,5 diphenyl tetrazolium bromide (MTT) into a dark blue formazan product that is insoluble in water. The anticancer activity of the novel synthetic derivatives (4a–4k) was investigated through an MTT assay, with small modifications following the already published protocols against cancer cell lines (HeLa and MCF-7), using cisplatin as a reference drug. The cytotoxic effect of the tested compounds at 100 µM concentration was determined and represented as the percent growth inhibition compared with the untreated control cells. The first series comprised dihydropyridines analogous from 4a–4f with various substitution patterns on the phenyl ring. […] It is presumed that the 1-naphthyl containing compound 4c was locked in a configuration that is not favorable for an interaction with amino acid residues.
The anti-proliferative activity of the synthesized compounds was determined in MCF-7 and HeLa cells by an MTT cell viability assay, as described earlier. Briefly, we seeded 1 × 10^4 cells/well in a sterile 96-well culture microtiter plate and incubated them in a 5% CO2 incubator at 37 °C for 24 h. […] After 24 h, the cells were treated with 0.2 mg/mL of MTT reagent for 4 h. We added 10% acidified SDS (sodium dodecyl sulfate) solubilizing solution in propanol (1:1) to solubilize the formazan crystals. After 30 min at 37 °C, the plate was placed on a gyratory shaker to completely dissolve the formazan crystals. The plate was placed on a microplate reader to measure the optical density at 570 nm. The IC50 values were calculated from three independent experiments as previously reported.
Background: Tetrazolium dyes change colour on reduction, which living cells bring about.

Each structure is given as a SMILES string.

One molecule from article PMC9570995, “Design, Synthesis, and Biological Evaluation of Novel Dihydropyridine and Pyridine Analogs as Potent Human Tissue Nonspecific Alkaline Phosphatase Inhibitors with Anticancer Activity: ROS and DNA Damage-Induced Apoptosis” (Molecules, 2022) can be followed below.

In the case of `N#CC1=C(N)N(Cc2ccccc2)C(N)=C(C#N)C1c1ccc2ccccc2c1` [Compound 4d, 2,6-Diamino-1-benzyl-4-(naphthalen-2-yl)-1,4-dihydropyridine-3,5-dicarbonitrile], the IC50 with HeLa cells (Homo sapiens, read-out: IC50 (cytotoxic potential, fluorescence microscopy with PI staining)) was 28.3 µM; in assay [1] (unit given, read-out: Cervical Cancer (HeLa) Cells IC50 Values ± SEM), 53.47 ± 0.5 µM. In the assay with HeLa cells (IC50 and 2 × IC50), the “morphological change of treated cells (DAPI staining)” value is “cellular shrinkage and nuclear condensation in a dose-dependent manner”. In assay [1] (100 µM, 24 h), the inhibition at 100 µM amounted to 82.7%.

In general, IC50 refers to the concentration at which inhibition is half-maximal. For orientation: inhibition means the relative decrease from the control value, in per cent. A lower inhibition goes with little suppression.
